Literature values as cited in US20060083768A1, “Method of thickening a coating using a drug” (ATRIUM MEDICAL CORPORATION, priority 2004, published 2006).

Tested on: Porcine Coronary Model
Conditions: stents coated with agent solubilized in eicosapentaenoic acid oil vs eicosapentaenoic acid oil coated stents

C=C1[C@@H](C)[C@H]2[C@H](Cc3ccccc3)NC(=O)[C@]23[C@H](OC(C)=O)/C=C/[C@@](C)(O)C(=O)[C@@H](C)C/C=C/[C@H]3[C@@H]1O [cytochalasin D]
less area stenosis compared to the control group: 38% | less intimal hyperplasia compared to the control group: 39%
